Values joined by “and” are separate entries in the source; they are usually repeats but may differ in a detail not shown here. Equal entries are not always repeated. Where two headings read alike, the source gives them in different places.
Experiments:
[1] = test system: nephritis caused by cisplatin; assay: Effect on nephritis caused by cisplatin -1 (Example 2); format: in vivo, female Fischer rats; settings: with cisplatin 2 mg/kg hypodermically for 5 days, 24 h after final administration
Protocol: Effect on nephritis caused by cisplatin -1
Five female Fischer rats (5 weeks of age) per group were administered hypodermically with 2 mg/kg of cisplatin for 5 days, and at the same time, HX-1920 was administered orally in a dose of 50 mg or 150 mg/kg, or administered intraperitoneally in a dose of 10 or 30 mg/kg. Twenty-four hours after the final administration, the rats were sacrificed, and their blood urea nitrogen (BUN) and creatinine were measured.

[2] = test system: nephritis caused by cisplatin; assay: Effect on nephritis caused by cisplatin - 2 (Example 3); format: in vivo, female Fischer rats; settings: with cisplatin 1 mg/kg hypodermically for 8 days, 24 h after final administration
Protocol: Effect on nephritis caused by cisplatin - 2
Six female Fischer rats (8 weeks of age) per group were administered hypodermically with 1 mg/kg of cisplatin for 8 days, and at the same time, HX-1920 was administered orally in a dose of 10 mg or 100 mg/kg. In both the administrations, the blood urea nitrogen (BUN) and creatinine measured 24 hours after the final administration tended to show lower values. […]

[3] = test system: nephritis caused by cisplatin; assay: Effect on nephritis caused by cisplatin - 3 (Example 4), BUN and survival; format: in vivo, male ICR rats; settings: with cisplatin 3 mg/kg subcutaneously for 4 days
Protocol: Effect on nephritis caused by cisplatin - 3
Ten male ICR rats (8 weeks of age) per group were administered subcutaneously with 3 mg/kg of cisplatin for 4 days, and at the same, HX-1920 was orally administered in a dose of 100 mg/kg. Sixteen hours after the final administration, 5 rats of each group were measured for blood urea nitrogen (BUN), and the survival ratios of the remaining 5 rats of each group for the subsequent 5 days were examined. […] Thus, the effect of the administration of HX-1920 on the alleviation of renal dysfunctions was observed. […]

[4] = test system: nephritis caused by cisplatin; assay: Effect on nephritis caused by cisplatin - 4 (Example 5); format: in vivo, female F344 rats; settings: for BUN / Creatinine: cisplatin 1 mg/kg hypodermically for 8 days, 24 h after final cisplatin; for inhibition at 100 mg/kg: Rattus norvegicus, po, 100 mg/kg p.o., inhibition of the cisplatin-induced increase
Protocol: Effect on nephritis caused by cisplatin - 4
Six to seven female F344 rats per group weighing about 150 g, per group, were administered hypodermically in the dorsal portion with 1 mg/kg of cisplatin dissolved in a physiological saline solution once a day over 8 days. Twenty-four hours after the final administration of the cisplatin, the rats were anesthtized with ether, and the blood was collected from each rat, centrifuged and measured for blood urea nitrogen (BUN) and creatinine with an autoanalyzer Olympus AU-550.
HX-1920 which was a substance to be tested was dissolved in a 2.5 % NaHCO₃, and the resultant solution was administered orally in a dose of 10 or 100 mg/kg over 8 days immediately before the administration of the cisplatin.
The increases in BUN and creatinine by the administration of cisplatin are considered to be characteristics in acute renal failure. […]

[5] = test system: vomiting caused by cisplatin; assay: Effect on inhibition of vomiting caused by cisplatin -1 (Example 6), degree of vomiting per dog; format: in vivo; parameters: key: III: Extreme; II: Moderate; I: Slight; 0: No vomiting; settings: 20 mg/kg p.o. (capsule) 30 min before i.v. cisplatin; individual dogs
Protocol: Effect on inhibition of vomiting caused by cisplatin -1
Five dogs (7 - 12.5 kg) per group were admininistered intravenously with 0.4 mg/kg of cisplatin per day for the initial 3 days and with 0.8 mg/kg of cisplatin per day for the subsequent 1 day. HX-1920 in a dose of 20 mg/kg was encapsulated and administered 30 minutes before the intravenous administration of cisplatin. Separately, Nauzelin (trade name, manufactured by Kyowa Hakko Kogyo Co., Ltd.), which was a domperidone type antiemetic, was administered to another group of five dogs in a dose of 2 mg/kg for 7 days. […] The vomiting was cured after 24 hours. However, the same symptom was repeatedly manifested when cisplatin was administered. […] Thus, the effect of HX-1920 on the alleviation of the vomit-inducing activity of the carcinostatic cisplatin was evident.

[6] = test system: vomiting induced by the cisplatin; assay: Effect on inhibition of vomiting caused by cisplatin -2 (Example 7), manifestation ratio; format: in vivo, mongrel dogs
Protocol: Effect on inhibition of vomiting caused by cisplatin -2
Female and male mongrel dogs weiging about 10 kg were administered intravenously with 0.4 mg/kg/day of cisplatin dissolved in a physiological saline solution for the initial 3 days and with 0.8 mg/kg/day of cisplatin for the subsequent 4 days to examine the effects of substances to be tested on the basis of a manifestation ratio, as an index, of vomiting induced by the cisplatin.
HX-1920, which was a substance to be tested, was dissolved in a 10 % Nikkol solution (Nikkol: trade name, dissolving aid manufactured by Nikko Chemical Co., Ltd.) containing 1 % NaHCO₃, and put into gelatin soft capsules, and the capsules were administered orally 30 minutes before the administration of cisplatin.
In addition, as a known domperidone type antiemetic, a 1 % Nauzelin powder was put into gelatin soft capsules, and administered orally 30 minutes before the administration of cisplatin.

[7] = test system: stomach contraction caused by cisplatin; assay: Effect on inhibition of stomach contraction caused by cisplatin (Example 8); format: in vivo, female Fischer rats; settings: with cisplatin 2 mg/kg subcutaneously once a day for 4 days
Protocol: Effect on inhibition of stomach contraction caused by cisplatin
Cisplatin in a dose of 2 mg/kg was administered subcutaneously into female Fischer rats (5 weeks of age) once a day for 4 days, and at the same time, HX-1920 was administered intraperitoneally or orally.
[…] For the cisplatin non-administered group and the cisplatin administered vehicle control group, 1 ml/day of a 1 % gum arabic solution was administered per rat.

[8] = 10 mg/kg/day p.o. in 2.5 % NaHCO3 over 8 days
[9] = 100 mg/kg/day p.o. in 2.5 % NaHCO3 over 8 days
[10] = 20 mg/kg orally in capsules 30 min before i.v. cisplatin (0.4 mg/kg/day 3 days, then 0.8 mg/kg/day 4 days)

CN1C(C(=O)Nc2ccccc2-c2nnn[nH]2)=C(O)c2ccccc2S1(=O)=O [HX-1920, 4-hydroxy-2-methyl-N-(2-(1H-tetrazol-5-yl)phenyl)2H-1,2-benzothiazine-3-carboxamide-1,1-dioxide]
BUN ([1]; 10 mg/kg/day i.p.): 102.8 ± 29.5 mg/dL | Creatinine ([1]; 10 mg/kg/day i.p.): 0.70 ± 0.04 mg/dL | BUN ([1]; 30 mg/kg/day i.p.): 69.6 ± 22.2 mg/dL | Creatinine ([1]; 30 mg/kg/day i.p.): 0.65 ± 0.04 mg/dL | BUN ([1]; 50 mg/kg/day p.o.): 138.1 ± 47.6 mg/dL | Creatinine ([1]; 50 mg/kg/day p.o.): 0.83 ± 0.31 mg/dL | BUN ([1]; 150 mg/kg/day p.o.): 91.1 ± 58.6 mg/dL | Creatinine ([1]; 150 mg/kg/day p.o.): 0.65 ± 0.11 mg/dL | BUN ([2]; 10 mg/kg/day p.o.): 51.1 ± 16.5 mg/dL | Creatinine ([2]; 10 mg/kg/day p.o.): 1.15 ± 0.29 mg/dL | BUN ([2]; 100 mg/kg/day p.o.): 38.0 ± 6.4 mg/dL | Creatinine ([2]; 100 mg/kg/day p.o.): 0.96 ± 0.05 mg/dL | survival (in words) ([3]; 100 mg/kg p.o., subsequent 5 days, all vehicle control rats died): all of the five rats of the HX-1920 administered group survived | BUN ([3]; 100 mg/kg/day p.o., 16 h after final administration): 78.3 ± 45.7 mg/dL | Survival ratio ([3]; 100 mg/kg/day p.o., survival over the subsequent 5 days): 100% | inhibition activity against increase in BUN and creatinine (in words) ([4]; 10 mg/kg p.o.): did not exhibit clear inhibition activity | BUN [4, 8]: 51.1 ± 16.5 mg/dL | Creatinine [4, 8]: 1.15 ± 0.29 mg/dL | BUN [4, 9]: 38.0 ± 6.1 mg/dL | Creatinine [4, 9]: 0.96 ± 0.05 mg/dL | inhibition at 100 mg/kg ([4]; read-out: inhibition activity in BUN): 38% | inhibition at 100 mg/kg ([4]; read-out: inhibition activity in creatinine): 25% | Degree of vomiting 5th day [5]: 0 (4×) and I | Degree of vomiting 6th day [5]: I (2×) and 0 (3×) | Degree of vomiting 7th day [5]: I (3×) and 0 (2×) | Vomiting manifestation ratio (%) 4th day [6, 10]: 29.4% | Vomiting manifestation ratio (%) 5th day [6, 10]: 23.5% | Vomiting manifestation ratio (%) 6th day [6, 10]: 29.4% | Vomiting manifestation ratio (%) 7th day [6, 10]: 52.9% | manifestation of vomiting (in words) ([6]; 20 mg/kg orally, compared with the vehicle control group): clearly inhibited | Diameter of center of stomach ([7]; 10 mg/kg i.p.): 0.97±0.07 mm | Diameter of center of stomach ([7]; 30 mg/kg i.p.): 1.18±0.07 mm | Diameter of center of stomach ([7]; 150 mg/kg p.o.): 1.14±0.07 mm

Reference: patent EP0455830B1, “MEDICINE CONTAINING THIAZINE DIOXIDE DERIVATIVE” (NIPPON HYPOX LABORATORIES INCORPORATED, priority 1989, dated 1991)
